Earlier results, collected in patent publication US9890223B2, “Resin particles and process for producing same, antiglare film, light-diffusing resin composition, and external preparation” (SEKISUI PLASTICS CO., LTD., priority 2010, dated 2018).

Settings: 20° C.

| Structure (SMILES) | Solubility in Water |
| --- | --- |
| C=C(C)C(=O)OCC(C)C [Isobutyl methacrylate] | 0.04 % by weight |
| C=C(C)C(=O)OCCCCCCCCCCCC [Lauryl methacrylate] | 0.01 or less % by weight |
| C=C(C)C(=O)OC [Methyl methacrylate] | 1.72 % by weight |
| C=C(C)C(=O)OCCCC [n-butyl methacrylate] | 0.04 % by weight |
| C=C(C)C(=O)OC(C)(C)C [tert-butyl methyacrylate] | 0.05 % by weight |
